Measurements taken from ChEMBL document CHEMBL1201861, “Genomics of Drug Sensitity in Cancer screening data, Wellcome Trust Sanger Institute”.

What was measured:
IST-SL2 = experiment: cells; format: functional, cell-based, Homo sapiens; details: Homo sapiens, IST-SL2;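 also: growth inhibition of human IST-SL2 cells, read out by a cell viability assay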
Description: SANGER: Inhibition of human IST-SL2 cell growth in a cell viability assay.

NCI-H1694 = experiment: cells; format: functional, cell-based, Homo sapiens; details: Homo sapiens, NCI-H1694;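 also: cell viability assay measuring inhibition of growth in human NCI-H1694 cells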
Description: SANGER: Inhibition of human NCI-H1694 cell growth in a cell viability assay.

MHH-CALL-2 = experiment: cells; format: functional, cell-based, Homo sapiens; details: Homo sapiens, MHH-CALL-2;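 also: growth inhibition of the cell line, read out in a cell viability assay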
Description: SANGER: Inhibition of human MHH-CALL-2 cell growth in a cell viability assay.

SIMA = experiment: cells; format: functional, cell-based, Homo sapiens; details: Homo sapiens, SIMA;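 also: growth inhibition of SIMA cells, measured with a cell viability readout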
Description: SANGER: Inhibition of human SIMA cell growth in a cell viability assay.

CHP-126 = experiment: cells; format: functional, cell-based, Homo sapiens; details: Homo sapiens, CHP-126
Description: SANGER: Inhibition of human CHP-126 cell growth in a cell viability assay.

NCI-H510A = experiment: cells; format: functional, cell-based, Homo sapiens; details: Homo sapiens, NCI-H510A;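 also: growth inhibition of NCI-H510A cells, read out with a cell viability assay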
Description: SANGER: Inhibition of human NCI-H510A cell growth in a cell viability assay.

EHEB = experiment: cells; format: functional, cell-based; details: Homo sapiens;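 also: growth inhibition of human EHEB cells, read out with a cell viability assay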
Description: SANGER: Inhibition of human EHEB cell growth in a cell viability assay.

SR = experiment: cells; format: functional, cell-based, Homo sapiens; details: Homo sapiens, SR
Description: SANGER: Inhibition of human SR cell growth in a cell viability assay.

NCCIT = experiment: SANGER: Inhibition of human NCCIT cell growth in a cell viability assay.; format: functional, cell-based; details: Homo sapiens, NCCIT
D-336MG = experiment: cells; format: functional, cell-based, Homo sapiens; details: Homo sapiens, D-336MG
Description: SANGER: Inhibition of human D-336MG cell growth in a cell viability assay.

MRK-nu-1 = experiment: cells; format: functional, cell-based, Homo sapiens; details: Homo sapiens, MRK-nu-1;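 also: cell viability assay measuring growth suppression of human MRK-nu-1 cells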
Description: SANGER: Inhibition of human MRK-nu-1 cell growth in a cell viability assay.

MC-CAR = experiment: cells; format: functional, cell-based, Homo sapiens; details: Homo sapiens, MC-CAR;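 also: growth inhibition of the human MC-CAR cell line, read out by a cell viability assay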
Description: SANGER: Inhibition of human MC-CAR cell growth in a cell viability assay.

COR-L279 = experiment: SANGER: Inhibition of human COR-L279 cell growth in a cell viability assay.; format: functional, cell-based; details: Homo sapiens, COR-L279
NB1 = experiment: cells; format: functional, cell-based, Homo sapiens; details: Homo sapiens, NB1
Description: SANGER: Inhibition of human NB1 cell growth in a cell viability assay.

BL-70 = experiment: SANGER: Inhibition of human BL-70 cell growth in a cell viability assay.; format: functional, cell-based; details: Homo sapiens, BL-70
U-698-M = experiment: cells; format: functional, cell-based, Homo sapiens; details: Homo sapiens, U-698-M
Description: SANGER: Inhibition of human U-698-M cell growth in a cell viability assay.

RPMI-6666 = experiment: cells; format: functional, cell-based, Homo sapiens; details: Homo sapiens, RPMI-6666
Description: SANGER: Inhibition of human RPMI-6666 cell growth in a cell viability assay.

NB17 = experiment: cells; format: functional, cell-based, Homo sapiens; details: Homo sapiens, NB17;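 also: growth inhibition of NB17 cells, read out with a cell viability assay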
Description: SANGER: Inhibition of human NB17 cell growth in a cell viability assay.

NCI-H719 = experiment: cells; format: functional, cell-based, Homo sapiens; details: Homo sapiens, NCI-H719;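 also: growth inhibition of the cultured cell line, read out with a viability assay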
Description: SANGER: Inhibition of human NCI-H719 cell growth in a cell viability assay.

CP66-MEL = experiment: cells; format: functional, cell-based; details: Homo sapiens;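 also: growth inhibition of CP66-MEL cells determined in a cell viability assay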
Description: SANGER: Inhibition of human CP66-MEL cell growth in a cell viability assay.

GP5d = experiment: cells; format: functional, cell-based; details: Homo sapiens;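 also: growth inhibition of human GP5d cells, read out with a cell viability assay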
Description: SANGER: Inhibition of human GP5d cell growth in a cell viability assay.

NCI-H2347 = experiment: cells; format: functional, cell-based; details: Homo sapiens;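 also: growth inhibition of the cell line, read out with a cell viability assay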
Description: SANGER: Inhibition of human NCI-H2347 cell growth in a cell viability assay.

SK-MES-1 = experiment: cells; format: functional, cell-based; details: Homo sapiens;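 also: growth inhibition of human SK-MES-1 cells, read out with a cell viability assay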
Description: SANGER: Inhibition of human SK-MES-1 cell growth in a cell viability assay.

CHL-1 = experiment: cells; format: functional, cell-based; details: Homo sapiens;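 also: cell growth inhibition, read out with a cell viability assay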
Description: SANGER: Inhibition of human CHL-1 cell growth in a cell viability assay.

SW1573 = experiment: cells; format: functional, cell-based; details: Homo sapiens;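 also: growth inhibition of SW1573 cells, read out with a cell viability assay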
Description: SANGER: Inhibition of human SW1573 cell growth in a cell viability assay.

CAL-39 = experiment: cells; format: functional, cell-based; details: Homo sapiens;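 also: cell viability assay measuring growth inhibition of CAL-39 cells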
Description: SANGER: Inhibition of human CAL-39 cell growth in a cell viability assay.

OE19 = experiment: cells; format: functional, cell-based; details: Homo sapiens;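 also: growth inhibition of OE19 cells, measured through a cell viability read-out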
Description: SANGER: Inhibition of human OE19 cell growth in a cell viability assay.

NCI-H520 = experiment: cells; format: functional, cell-based; details: Homo sapiens;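 also: growth inhibition of NCI-H520 cells, measured by a cell viability assay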
Description: SANGER: Inhibition of human NCI-H520 cell growth in a cell viability assay.

SNU-449 = experiment: cells; format: functional, cell-based; details: Homo sapiens
Description: SANGER: Inhibition of human SNU-449 cell growth in a cell viability assay.

PANC-03-27 = experiment: cells; format: functional, cell-based; details: Homo sapiens
Description: SANGER: Inhibition of human PANC-03-27 cell growth in a cell viability assay.

CAL-51 = experiment: cells; format: functional, cell-based; details: Homo sapiens;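 also: human CAL-51 cell line, growth inhibition read out via a cell viability assay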
Description: SANGER: Inhibition of human CAL-51 cell growth in a cell viability assay.

IGR-1 = experiment: cells; format: functional, cell-based; details: Homo sapiens;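 also: growth inhibition of human IGR-1 cells, read out with a cell viability assay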
Description: SANGER: Inhibition of human IGR-1 cell growth in a cell viability assay.

SCC-4 = experiment: cells; format: functional, cell-based; details: Homo sapiens;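 also: growth inhibition of human SCC-4 cells, read out as cell viability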
Description: SANGER: Inhibition of human SCC-4 cell growth in a cell viability assay.

MDA-MB-157 = experiment: cells; format: functional, cell-based; details: Homo sapiens
Description: SANGER: Inhibition of human MDA-MB-157 cell growth in a cell viability assay.

NCI-H441 = experiment: cells; format: functional, cell-based; details: Homo sapiens;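 also: growth inhibition of NCI-H441 cells, read out with a cell viability assay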
Description: SANGER: Inhibition of human NCI-H441 cell growth in a cell viability assay.

BHT-101 = experiment: cells; format: functional, cell-based; details: Homo sapiens
Description: SANGER: Inhibition of human BHT-101 cell growth in a cell viability assay.

NCI-H630 = experiment: cells; format: functional, cell-based; details: Homo sapiens;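 also: growth inhibition of NCI-H630 cells, read out with a cell viability assay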
Description: SANGER: Inhibition of human NCI-H630 cell growth in a cell viability assay.

NCI-H596 = experiment: cells; format: functional, cell-based; details: Homo sapiens;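 also: growth inhibition of NCI-H596 cells, read out with a cell viability assay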
Description: SANGER: Inhibition of human NCI-H596 cell growth in a cell viability assay.

SW1710 = experiment: cells; format: functional, cell-based; details: Homo sapiens;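 also: growth inhibition of SW1710 cells, determined with a cell viability assay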
Description: SANGER: Inhibition of human SW1710 cell growth in a cell viability assay.

PA-1 = experiment: cells; format: functional, cell-based; details: Homo sapiens;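 also: IC50 for suppression of PA-1 cell proliferation, determined with a cell viability read-out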
Description: SANGER: Inhibition of human PA-1 cell growth in a cell viability assay.

GMS-10 = experiment: cells; format: functional, cell-based; details: Homo sapiens;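 also: growth inhibition of GMS-10 cells, read out as cell viability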
Description: SANGER: Inhibition of human GMS-10 cell growth in a cell viability assay.

DU-145 = experiment: cells; format: functional, cell-based; details: Homo sapiens
Description: SANGER: Inhibition of human DU-145 cell growth in a cell viability assay.

BEN = experiment: cells; format: functional, cell-based; details: Homo sapiens;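 also: growth inhibition of the BEN cell line, read out with a cell viability assay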
Description: SANGER: Inhibition of human BEN cell growth in a cell viability assay.

MFE-280 = experiment: cells; format: functional, cell-based; details: Homo sapiens;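 also: growth inhibition of MFE-280 cells, determined with a cell viability readout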
Description: SANGER: Inhibition of human MFE-280 cell growth in a cell viability assay.

RT-112 = experiment: cells; format: functional, cell-based; details: Homo sapiens
Description: SANGER: Inhibition of human RT-112 cell growth in a cell viability assay.

COLO-679 = experiment: cells; format: functional, cell-based; details: Homo sapiens
Description: SANGER: Inhibition of human COLO-679 cell growth in a cell viability assay.

COLO-741 = experiment: cells; format: functional, cell-based; details: Homo sapiens
Description: SANGER: Inhibition of human COLO-741 cell growth in a cell viability assay.

HuO9 = experiment: cells; format: functional, cell-based; details: Homo sapiens;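 also: growth inhibition of HuO9 cells, read out with a cell viability assay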
Description: SANGER: Inhibition of human HuO9 cell growth in a cell viability assay.

C32 = experiment: cells; format: functional, cell-based; details: Homo sapiens;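 also: cell viability assay, with IC50 reflecting inhibition of C32 cell growth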
Description: SANGER: Inhibition of human C32 cell growth in a cell viability assay.

SK-OV-3 = experiment: cells; format: functional, cell-based; details: Homo sapiens;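 also: growth inhibition of SK-OV-3 human cells, read out with a cell viability assay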
Description: SANGER: Inhibition of human SK-OV-3 cell growth in a cell viability assay.

OVCAR-3 = experiment: cells; format: functional, cell-based; details: Homo sapiens;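 also: growth inhibition of human OVCAR-3 cells, determined by a cell viability assay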
Description: SANGER: Inhibition of human OVCAR-3 cell growth in a cell viability assay.

RCM-1 = experiment: cells; format: functional, cell-based; details: Homo sapiens;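 also: growth inhibition of the RCM-1 line, determined with a cell viability readout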
Description: SANGER: Inhibition of human RCM-1 cell growth in a cell viability assay.

YKG-1 = experiment: cells; format: functional, cell-based; details: Homo sapiens;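 also: cell growth inhibition, read out with a viability assay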
Description: SANGER: Inhibition of human YKG-1 cell growth in a cell viability assay.

KYSE-410 = experiment: cells; format: functional, cell-based; details: Homo sapiens;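 also: growth inhibition of KYSE-410 cells, measured through a cell viability readout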
Description: SANGER: Inhibition of human KYSE-410 cell growth in a cell viability assay.

A2058 = experiment: cells; format: functional, cell-based; details: Homo sapiens;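 also: reduction of A2058 cell growth, read out with a viability assay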
Description: SANGER: Inhibition of human A2058 cell growth in a cell viability assay.

UO-31 = experiment: cells; format: functional, cell-based; details: Homo sapiens
Description: SANGER: Inhibition of human U031 cell growth in a cell viability assay.

NC(=O)c1cccc(-c2cc(Nc3ccc(OC(F)(F)F)cc3)ncn2)c1
IC50 (IST-SL2): > 1.28 µM
IC50 (NCI-H1694): > 1.28 µM
IC50 (MHH-CALL-2): > 1.28 µM
IC50 (SIMA): > 1.28 µM
IC50 (CHP-126): > 1.28 µM
IC50 (NCI-H510A): > 1.28 µM
IC50 (EHEB): > 1.28 µM
IC50 (SR): > 1.28 µM
IC50 (NCCIT): > 1.28 µM
IC50 (D-336MG): > 1.28 µM
IC50 (MRK-nu-1): > 1.28 µM
IC50 (MC-CAR): > 1.28 µM
IC50 (COR-L279): > 1.28 µM
IC50 (NB1): > 1.28 µM
IC50 (BL-70): > 1.28 µM
IC50 (U-698-M): > 1.28 µM
IC50 (RPMI-6666): > 1.28 µM
IC50 (NB17): > 1.28 µM
IC50 (NCI-H719): > 1.28 µM
IC50 (CP66-MEL): > 1.28 µM

NC1(c2ccc(-c3nc4ccn5c(=O)[nH]nc5c4cc3-c3ccccc3)cc2)CCC1 [MK-2206]
IC50 (GP5d): > 4 µM
IC50 (NCI-H2347): > 4 µM
IC50 (SK-MES-1): > 4 µM
IC50 (CHL-1): > 4 µM
IC50 (SW1573): > 4 µM
IC50 (CAL-39): > 4 µM
IC50 (OE19): > 4 µM
IC50 (NCI-H520): 0.986 µM
IC50 (SNU-449): > 4 µM
IC50 (PANC-03-27): > 4 µM
IC50 (CAL-51): > 4 µM
IC50 (IGR-1): > 4 µM
IC50 (SCC-4): > 4 µM
IC50 (MDA-MB-157): > 4 µM
IC50 (NCI-H441): > 4 µM
IC50 (BHT-101): 0.53 µM
IC50 (NCI-H630): > 4 µM
IC50 (NCI-H596): > 4 µM
IC50 (SW1710): 3.47 µM
IC50 (PA-1): 1.35 µM
IC50 (GMS-10): > 4 µM
IC50 (DU-145): 0.647 µM
IC50 (BEN): > 4 µM
IC50 (MFE-280): 0.965 µM
IC50 (RT-112): 3.52 µM
IC50 (COLO-679): > 4 µM
IC50 (COLO-741): > 4 µM
IC50 (HuO9): 0.928 µM
IC50 (NB17): > 4 µM
IC50 (C32): > 4 µM
IC50 (SK-OV-3): > 4 µM
IC50 (OVCAR-3): 3.41 µM
IC50 (RCM-1): > 4 µM
IC50 (YKG-1): > 4 µM
IC50 (KYSE-410): > 4 µM

CS(=O)(=O)N1CCN(Cc2cc3nc(-c4cccc5[nH]ncc45)nc(N4CCOCC4)c3s2)CC1 [PICTILISIB]
IC50 (GP5d): > 4 µM
IC50 (NCI-H2347): > 4 µM
IC50 (SK-MES-1): 2.01 µM
IC50 (CHL-1): 0.379 µM
IC50 (SW1573): 3.75 µM
IC50 (CAL-39): 2.03 µM
IC50 (OE19): > 4 µM
IC50 (NCI-H520): 1.09 µM
IC50 (SNU-449): 2.57 µM
IC50 (PANC-03-27): 1.51 µM
IC50 (CAL-51): > 4 µM
IC50 (A2058): > 4 µM
IC50 (IGR-1): > 4 µM
IC50 (SCC-4): > 4 µM
IC50 (MDA-MB-157): 2.82 µM
IC50 (NCI-H441): > 4 µM
IC50 (BHT-101): 0.545 µM
IC50 (NCI-H630): > 4 µM
IC50 (NCI-H596): > 4 µM
IC50 (SW1710): 1.04 µM
IC50 (PA-1): 0.532 µM
IC50 (GMS-10): > 4 µM
IC50 (DU-145): > 4 µM
IC50 (BEN): > 4 µM
IC50 (MFE-280): 0.418 µM
IC50 (RT-112): > 4 µM
IC50 (COLO-679): > 4 µM
IC50 (COLO-741): > 4 µM
IC50 (HuO9): 0.206 µM
IC50 (NB17): > 4 µM
IC50 (C32): 3.42 µM
IC50 (SK-OV-3): > 4 µM
IC50 (OVCAR-3): > 4 µM
IC50 (RCM-1): > 4 µM
IC50 (YKG-1): 3.04 µM
IC50 (UO-31): > 4 µM
IC50 (KYSE-410): > 4 µM

CN(C)CCOc1ccc(-c2nc(-c3ccncc3)c(-c3ccc4c(c3)CC/C4=N\O)[nH]2)cc1 [SB590885]
IC50 (GP5d): > 5 µM
IC50 (NCI-H2347): > 5 µM
IC50 (SK-MES-1): > 5 µM
IC50 (CHL-1): > 5 µM
IC50 (SW1573): > 5 µM
IC50 (CAL-39): > 5 µM
IC50 (OE19): > 5 µM
IC50 (NCI-H520): > 5 µM
IC50 (SNU-449): > 5 µM
IC50 (PANC-03-27): > 5 µM
IC50 (CAL-51): > 5 µM
IC50 (A2058): > 5 µM
IC50 (IGR-1): > 5 µM
IC50 (SCC-4): > 5 µM
IC50 (MDA-MB-157): > 5 µM
IC50 (NCI-H441): > 5 µM
IC50 (BHT-101): 1.63 µM
IC50 (NCI-H630): > 5 µM
IC50 (NCI-H596): > 5 µM
IC50 (SW1710): > 5 µM
IC50 (PA-1): > 5 µM
IC50 (GMS-10): > 5 µM
IC50 (DU-145): > 5 µM
IC50 (BEN): > 5 µM
IC50 (MFE-280): > 5 µM
IC50 (RT-112): > 5 µM
IC50 (COLO-679): 0.386 µM
IC50 (COLO-741): > 5 µM
IC50 (HuO9): > 5 µM
IC50 (NB17): > 5 µM
IC50 (C32): 0.0996 µM
IC50 (SK-OV-3): > 5 µM
IC50 (OVCAR-3): > 5 µM
IC50 (RCM-1): > 5 µM
IC50 (YKG-1): > 5 µM
IC50 (UO-31): > 5 µM
IC50 (KYSE-410): > 5 µM
